Read-outs that look alike come from different tables or passages of the source.
Experiments:
P. aeruginosa PA01 (wt) = experiment: Antibiotic susceptibility testing (broth micro-dilution MIC), strain PA01; type: cell-based, Pseudomonas aeruginosa; conditions: for MIC: Pseudomonas aeruginosa
Protocol: (§1) Experiments were performed on the BAC-SCREEN platform of the UMR-MD1, with a Freedom EVO 150 liquid handling system (Tecan, Lyon, France).
(§2) The same experiment was performed using chloramphenicol (4 mg/L) in combination with 3 (10 μM final concentration). […] These experiments were performed to study the effect of our compounds on the natural resistance of P. aeruginosa. […] Experiments were performed with the ß-lactams ceftazidime and ticarcillin and ciprofloxacin and amikacin.

[1] = tested on: P. aeruginosa PT629 (Mex AB overproducer); experiment: Antibiotic susceptibility testing (broth micro-dilution MIC), strain PT629; type: cell-based, Pseudomonas aeruginosa; conditions: Pseudomonas aeruginosa
Protocol: as §1
(§3) We concluded that compound 3 was the best compound and suitable for a more detailed study. The same experiment was performed using chloramphenicol (4 mg/L) in combination with 3 (10 μM final concentration). Amongst the 20 clinical isolates, the growth of 15 (75%) was impaired, while 5 (25%) were resistant (data not shown). These experiments were performed to study the effect of our compounds on the natural resistance of P. aeruginosa. In addition, we were wondering if compound 3 could also increase susceptibility to other antibiotic families including ß-Lactams, fluoroquinolones and aminoglycosides, that are representative of the main classes of anti-pseudomonal agents. Experiments were performed with the ß-lactams ceftazidime and ticarcillin and ciprofloxacin and amikacin. […] . […] To better characterize compound 3, we first searched for the minimum concentration of compound that allowed killing of bacteria by doxycycline, and PAßN was used as the reference molecule.

[2] = tested on: P. aeruginosa PA01 ERY^R (Mex CD overproducer); experiment: microbe, parasite or virus in culture; type: cell-based, Pseudomonas aeruginosa; conditions: Pseudomonas aeruginosa
Protocol: as §1, §2

[3] = tested on: P. aeruginosa PA0-7H (Mex EF overproducer); experiment: Antibiotic susceptibility testing (broth micro-dilution MIC), strain PA0-7H; type: cell-based, Pseudomonas aeruginosa; conditions: Pseudomonas aeruginosa
Protocol: as §1, §3

[4] = tested on: P. aeruginosa CMZ091 (Mex XY overproducer); experiment: Antibiotic susceptibility testing (broth micro-dilution MIC), strain CMZ091; type: cell-based, Pseudomonas aeruginosa; conditions: Pseudomonas aeruginosa
Protocol: as §1, §3

[5] = tested on: clinical isolates of P. aeruginosa; experiment: Doxycycline MIC of the clinical isolates (S1 Table); type: cell-based; conditions: Pseudomonas aeruginosa
Protocol: The P. aeruginosa strains used in this study are described in Table 1. In addition, a series of 20 clinical isolates of P. aeruginosa obtained from the Hôpital d’Instruction des Armées Laveran, HIA-Laveran (Marseille, France) were also used in this study (S1 Table). Strains were stored at -80°C in 15% (v/v) glycerol for cryo-protection. Bacteria were routinely maintained on Mueller-Hinton (MH) agar plates and grown in cation-adjusted MH broth (MHBII) at 37°C.
as §1
Isolates Sampling location Sampling date Patient age Doxycycline MIC Main antibiotic resistance
AMK, LVX, OFX, TET, MIN, TGC, CHL, NET, CAR
PA2013-LAV17 Redon drain 15/12/2012 81 32 PIP, PIP/TZP, AZT, CAZ, TIC, TCC, FEP, FOS, TET,
TIC : ticarcillin, TCC : ticarcillin/clavulanic acid, FOS : fosfomycin, TET : tetracycline, MIN, minocycline, TCG, tigecycline, CAR : carbenicillin, PIP :
piperacillin, PIP/TZP : piperacillin/tazobactam, GEN : gentamycin, CAZ : ceftazidime, FEP : cefepime, TOB : tobramycin, IPM : imipenem, CIP :
ciprofloxacin, AMK : amikacin, LVX : levofloxacin, OFX : ofloxacin, NET : netilmicin, STR, streptomycin, MEM : meropenem.

P. aeruginosa PA01 = experiment: Checkerboard assay with doxycycline; type: cell-based, Pseudomonas aeruginosa; conditions: Pseudomonas aeruginosa; PA01, checkerboard plate; read-out: Doxycycline MIC (alone)
Protocol: Serial two-fold dilutions of antimicrobial agents were mixed together in a microtiter plate. The range of concentration of each drug was twice the MIC, down to the eleventh serial two-fold dilutions below this amount. Doxycycline was serially diluted along the X-axis, and the polyamino-isoprenic compound or PAßN was diluted along the Y-axis as indicated. Each well was inoculated with a bacterial inoculum of 5 x 10^5 CFU/ml, and the plates were incubated at 37°C for 18 h under aerobic conditions. Each plate also contained a row and a column in which a serial dilution of polyamino-isoprenic compound or doxycycline, respectively, was present alone to determine the MIC. The FIC index was calculated as follows: FIC index = FIC A + FIC B, where FIC A is the MIC of drug A in the combination/MIC of drug A alone and FIC B is the MIC of drug B in the combination/MIC of drug B alone. The combination was considered synergistic when the FIC index is ≤0.5, and antagonistic when the FIC index is > 4 [26].

[6] = PA01, antibiotic alone (∅), S3 Table, read-out: MIC
[7] = read-out: Minimal Inhibitory Concentration

NCC[C@H](O)C(=O)N[C@@H]1C[C@H](N)[C@@H](O[C@H]2O[C@H](CN)[C@@H](O)[C@H](O)[C@H]2O)[C@H](O)[C@H]1O[C@H]1O[C@H](CO)[C@@H](O)[C@H](N)[C@H]1O [Amikacin, amikacin]
MIC (P. aeruginosa PA01 (wt); [6]): 8 µg/mL | MIC [1]: 4 µg/mL | MIC [2]: 1 µg/mL | MIC [3]: 4 µg/mL | MIC [4]: 32 µg/mL

CC(C)(O/N=C(\C(=O)N[C@@H]1C(=O)N2C(C(=O)[O-])=C(C[n+]3ccccc3)CS[C@H]12)c1csc(N)n1)C(=O)O [Ceftazidime, ceftazidime]
MIC (P. aeruginosa PA01 (wt); [6]): 2 µg/mL | MIC [1]: 8 µg/mL | MIC [3]: 1 µg/mL

O=C(O)c1cn(C2CC2)c2cc(N3CCNCC3)c(F)cc2c1=O [Ciprofloxacin, ciprofloxacin]
MIC [1]: 0.5 to 1 µg/mL | MIC [3]: 4 µg/mL | MIC [4]: 0.5 µg/mL

CC1(C)S[C@@H]2[C@H](NC(=O)[C@H](C(=O)O)c3ccsc3)C(=O)N2[C@H]1C(=O)O [Ticarcillin, ticarcillin]
MIC (P. aeruginosa PA01 (wt); [6]): 32 to 64 µg/mL | MIC [1]: > 64 µg/mL | MIC [2]: 32 to 64 µg/mL | MIC [3]: 8 µg/mL | MIC [4]: 16 to 32 µg/mL

C[C@H]1c2cccc(O)c2C(=O)C2=C(O)[C@]3(O)C(=O)C(C(N)=O)=C(O)[C@@H](N(C)C)[C@@H]3[C@@H](O)[C@@H]21 [doxycycline]
MIC (P. aeruginosa PA01 (wt); PA01, wt, mean of 3 independent experiments, read-out: Minimal Inhibitory Concentration): 32 µg/mL | MIC [1, 7]: > 32 µg/mL | MIC [2, 7]: 16 µg/mL | MIC [3, 7]: > 32 µg/mL | MIC ([5]; isolate PA2013-LAV01): 32 µg/mL | MIC ([5]; isolate PA2013-LAV02): 32 µg/mL | MIC ([5]; isolate PA2013-LAV03): > 32 µg/mL | MIC ([5]; isolate PA2013-LAV04): 32 µg/mL | MIC ([5]; isolate PA2013-LAV05): > 32 µg/mL | MIC ([5]; isolate PA2013-LAV06): 32 µg/mL | MIC ([5]; isolate PA2013-LAV07): 32 µg/mL | MIC ([5]; isolate PA2013-LAV08): 32 µg/mL | MIC ([5]; isolate PA2013-LAV09): > 32 µg/mL | MIC ([5]; isolate PA2013-LAV10): 32 µg/mL | MIC ([5]; isolate PA2013-LAV11): 32 µg/mL | MIC ([5]; isolate PA2013-LAV12): 32 µg/mL | MIC ([5]; isolate PA2013-LAV13): 32 µg/mL | MIC ([5]; isolate PA2013-LAV14): > 32 µg/mL | MIC ([5]; isolate PA2013-LAV15): > 32 µg/mL | MIC ([5]; isolate PA2013-LAV16): 32 µg/mL | MIC ([5]; isolate PA2013-LAV17): 32 µg/mL | MIC ([5]; isolate PA2013-LAV18): > 32 µg/mL | MIC ([5]; isolate PA2013-LAV19): 32 µg/mL | MIC ([5]; isolate PA2013-LAV20): > 32 µg/mL | MIC (P. aeruginosa PA01): 32 µg/mL

polymyxin-B
Minimal Inhibitory Concentration (P. aeruginosa PA01 (wt); PA01, wt): < 10 µM

— article PMC4859512, “Polyamino-Isoprenic Derivatives Block Intrinsic Resistance of P. aeruginosa to Doxycycline and Chloramphenicol In Vitro” (PLoS ONE, 2016)
